Consider 23 compounds from patent US5439930A, “Biologically active n-acylprolydipeptides having antiamnestic, antihypoxic and anorexigenic effects” (Russian-American Institute for New Drug Development, priority 1992, dated 1995).

Where a SMILES comes first, the peptide text is derived from it. The star is where a group is joined. Isovaleryl = CC(C)CC(=O)*; Hexanoyl = CCCCCC(=O)*; PhAc = O=C(Cc1ccccc1)*; Bz = O=C(c1ccccc1)*

Holding throughout (type): in vivo
For assay [1], the system named is memory decline evoked by maximal electroshock (MES) in randomly bred male albino rats. Put plainly: Passive avoidance step-through, amnesia by maximal electroshock (MES). Conditions: for Latency (sec.) Amnesia + subst. / AA % (antiamnestic activity, Butler's modified formula) / inhibition in vivo at 0.1 mg/kg: 0.1 mg/kg i.p. 15 min before training; for Latency (sec.) Amnesia + subst.: MES after learning, retention 24 h later; for inhibition in vivo at 0.1 mg/kg: Rattus norvegicus, ip, 24 h, read-out: AA % (antiamnestic activity, Butler's modified formula). The procedure: (§1) Compounds according to the present invention, including the compounds described in Examples 1-11, were checked for their ability to prevent memory decline evoked by maximal electroshock (MES) or scopolamine in the passive avoidance step-through paradigm (equipment of Laffaette Co., USA). The experiments described herein (Examples 12, 13, 15, and 19) were carried out using randomly bred male albino rats of a weight of approximately 180-220 g. […] Amnesia was produced by transcorneal maximal electroshock immediately after learning or scopolamine (1 mg/kg, subcutaneously) administration 30 min. before learning. The retention was tested 24 hours later by the measurement of latency of the entering of the dark compartment.
(§2) The degree of antiamnestic activity was estimated according to Buttler's modified formula: [formula]
(§3) The higher the magnitude of this indicator the more is the antiamnestic activity.

In assay [2] the test system is memory decline evoked by scopolamine in randomly bred male albino rats. Nature of the assay: Passive avoidance step-through, amnesia by scopolamine. The procedure:
as §1, §2, §3

Assay [3] relates to phenazepam withdrawn male albino rats. Nature of the assay: Threshold of aggressive behavior during phenazepam withdrawal. Conditions: immediately after the last administration of phenazepam (2 mg/kg i.p. daily for 57 days). The protocol: The influence of Compound I on withdrawal syndrome caused by the interruption of chronic administration of benzodiazepine tranquilizer phenazepam (T. A. Voronina et al., In Fenazepam; A. V. Bogatsky, Ed.; Naukova dumka Publishers: Kiev, 1982; pp. 67-169) was studied in experiments on male albino rats weighing 190-200 g at the beginning and 300-350 g at the end of the experiment.
Phenazepam (2 mg/kg intraperitoneally) or saline (control group of rats) were given once daily for 57 days. The withdrawal syndrome occurred 24-72 hours after the last injection. The withdrawal syndrome in rats consisted in "anxiogenic-like" state aggressiveness and accelerated development of kindled seizures caused by pentylentetrazol. Compound I was administered to the withdrawn rats in doses of 0.5 mg/kg intraperitoneally 15 minutes prior to testing.
The threshold of the aggressive behavior was determined in the experiment on the rats (R. Tedeshi et al., J. Pharmacol. Exp. Ther., 125, 28-34 (1959)). The paired rats were placed on the electrified floor; the strength of the current, which provokes the fighting, was registered.

Assay [4] concerns undertraining of the passive avoidance reflex, rats. Put plainly: Passive avoidance with undertraining, different regimes of administration. The following applies: 200 mg/kg i.p.
Assay [5] is described as follows: Level of active dose for the described nootropic activities. Conditions: above-described nootropic activities. The protocol:
The compounds of the present invention were assessed for their ability to prevent memory impairment induced by maximal electroshock, or scopolamine administration. Unlike N-acylpyrrolidine compounds of the type described by Tanaka et al., supra, the compounds of the present invention are not believed to inhibit prolyl endopeptidase activity. […] The Compound I prevents mental decline, induced by frontal lobectomy (Example 15), prenatal alcoholization or prenatal hypoxia (Example 16) and aging (Example 17).
In contrast to this, substances in accordance with the present invention exert their effects in a dose between about 0.1-0.5 mg/kg.

Setting [6] is: 0.1 mg/kg 15 min before learning, scopolamine 1 mg/kg s.c.
Setting [7] is: 0.1 mg/kg 15 min before learning, scopolamine 1 mg/kg s.c. 30 min before trial.
Setting [8] is: 200 mg/kg, scopolamine 1 mg/kg s.c.

`NC(=O)CNC(=O)[C@@H]1CCCN1C(=O)Cc1ccccc1` [II, N-phenacetyl-L-prolylglycine amide] (PhAc-Pro-Gly-NH2): in assay [1], the “Latency (sec.) Amnesia + subst.” value was found to be 56 s. The “AA % (antiamnestic activity, Butler's modified formula)” value in assay [1] (MES amnesia) is on record as 27%. The “Aa (antiamnestic activity)” value in assay [2] (setting [6]) is -9.0. Besides, the “Latency (sec.) Scopolamine + substance” value in assay [2] (setting [7]) worked out at 45.6 s.
Take `CCOC(=O)CCNC(=O)[C@@H]1CCCN1C(=O)Cc1ccccc1` [III, N-phenacetyl-L-prolyl-β-alanine ethyl ester]: in assay [1], the “Latency (sec.) Amnesia + subst.” value was 56 s. The “AA % (antiamnestic activity, Butler's modified formula)” value in assay [1] (MES amnesia) is 29%. In assay [2] (setting [6]), the “Aa (antiamnestic activity)” value is recorded as 23.7. In addition, the “Latency (sec.) Scopolamine + substance” value in assay [2] (setting [7]) was 78.6 s.
Turning to `NC(=O)CCNC(=O)[C@@H]1CCCN1C(=O)Cc1ccccc1` [IV, N-phenylacetyl-L-prolyl-β-alanine amide], the inhibition in vivo at 0.1 mg/kg in assay [1] (MES amnesia) stood at 52%. Also, in assay [2] (setting [6]), the “Aa (antiamnestic activity)” value came to 52.1. Also, in assay [2] (setting [7]), the “Latency (sec.) Scopolamine + substance” value is 94.9 s.
As to `CCOC(=O)[C@@H](NC(=O)[C@@H]1CCCN1C(=O)Cc1ccccc1)C(C)C` [IX, N-phenylacetyl-L-prolyl-L-valine ethyl ester] (PhAc-Pro-Val-OEt), in assay [1] (MES amnesia), the inhibition in vivo at 0.1 mg/kg came to 0.0001%.
Take `O=C1CN=C(c2ccccc2Cl)c2cc(Br)ccc2N1` [Phenazepam, reference compound]: the “Aggression Threshold (mA)” value in assay [3] stood at 2.16 ± 0.2 mA.
For `NC(=O)CN1CCCC1=O` [Piracetam, N-carbamido-methyl-pyrrolidone-2, reference compound], in assay [4], the “Mnestic activity (Ma), administration 15 min. before retrieval” value is listed as -15%; the “Mnestic activity (Ma), administration 15 min. before trial” value worked out at 20.0%; the “Mnestic activity (Ma), administration immediately after trial” value stood at 1.0%. In addition, in assay [1] (200 mg/kg, MES amnesia), the “AA % (antiamnestic activity)” value is listed as 30.5%. Besides, the “Level of active dose” value in assay [5] was 200 to 800 mg/kg. Moreover, in assay [2] (setting [8]), the “Aa (antiamnestic activity)” value stood at 39.3 and the “Latency (sec.) Scopolamine + substance” value was found to be 64.2 s.
Regarding `CCOC(=O)C[C@H](NC(=O)[C@@H]1CCCN1C(=O)Cc1ccccc1)C(=O)OCC` [V, N-phenylacetyl-L-prolyl-L-aspartic acid diethyl ester] (PhAc-Pro-Asp(OEt)-OEt), the inhibition in vivo at 0.1 mg/kg in assay [1] (MES amnesia) amounted to 29.5%. The “Aa (antiamnestic activity)” value in assay [2] (setting [6]) was -10. Besides, in assay [2] (setting [7]), the “Latency (sec.) Scopolamine + substance” value worked out at 48.1 s.
For `NC(=O)C[C@H](NC(=O)[C@@H]1CCCN1C(=O)Cc1ccccc1)C(N)=O` [VI, N-phenylacetyl-L-prolyl-L-asparagine amide] (PhAc-Pro-Asn-NH2), in that order: 26%, -4.3 and 46.3 s.
For the compound `CCOC(=O)CNC(=O)[C@@H]1CCCN1C(=O)c1ccccc1` [VII, N-benzoyl-L-prolylglycine ethyl ester] (Bz-Pro-Gly-OEt), the inhibition in vivo at 0.1 mg/kg in assay [1] (MES amnesia) is 37%.
On the same count and under the same terms, under `CCOC(=O)CNC(=O)[C@@H]1CCCN1C(=O)CC(C)C` [VIII, N-isovaleryl-L-prolylglycine ethyl ester] (Isovaleryl-Pro-Gly-OEt) stands 28%; under `CCOC(=O)[C@@H](NC(=O)[C@@H]1CCCN1C(=O)c1ccccc1)C(C)C` [X, N-benzoyl-L-prolyl-L-valine ethyl ester] (Bz-Pro-Val-OEt), 38%.
As to `CCOC(=O)CCNC(=O)[C@@H]1CCCN1C(=O)c1ccccc1` [XI, N-benzoyl-L-prolyl-β-alanine ethyl ester], the inhibition in vivo at 0.1 mg/kg in assay [1] (MES amnesia) was 21.9%.
`NC(=O)CCNC(=O)[C@@H]1CCCN1C(=O)c1ccccc1` [XII, N-benzoyl-L-prolyl-β-alanine amide]: the inhibition in vivo at 0.1 mg/kg in assay [1] (MES amnesia) was found to be 15.2%.
The same measure, in the same setting: the value for `NC(=O)CNC(=O)[C@@H]1CCCN1C(=O)c1ccccc1` [XIII, N-benzoyl-L-prolylglycine amide] (Bz-Pro-Gly-NH2) was -17.6%; that for `CNC(=O)CNC(=O)[C@@H]1CCCN1C(=O)Cc1ccccc1` [XIV, N-phenylacetyl-L-prolylglycine N-methylamide] (PhAc-Pro-Gly-NHMe) was -7.6%.
As for `COC(=O)CCCNC(=O)[C@@H]1CCCN1C(=O)Cc1ccccc1` [XIX, N-phenylacetyl-L-prolyl-GABA methylester], in assay [1], the “Latency (sec.) Amnesia + subst.” value turned out to be 95.8 s. Moreover, the “AA % (antiamnestic activity, Butler's modified formula)” value in assay [1] (MES amnesia) was 45.4%.
With `CN(C)C(=O)CNC(=O)[C@@H]1CCCN1C(=O)Cc1ccccc1` [XV, N-phenylacetyl-L-prolylglycine dimethylamide] (PhAc-Pro-Gly-NMe2), the inhibition in vivo at 0.1 mg/kg in assay [1] (MES amnesia) came to 23%.
The same measure, in the same setting: the value for `CCOC(=O)CC[C@H](NC(=O)[C@@H]1CCCN1C(=O)Cc1ccccc1)C(=O)OCC` [XVI, N-phenylacetyl-L-prolyl-L-glutamic acid diethyl ester] (PhAc-Pro-Glu(OEt)-OEt) was 58.3%.
With `CC(C)C[C@H](NC(=O)[C@@H]1CCCN1C(=O)Cc1ccccc1)C(N)=O` [XVII, N-phenylacetyl-L-prolyl-L-leucine amide] (PhAc-Pro-Leu-NH2), in assay [1] (MES amnesia), the inhibition in vivo at 0.1 mg/kg stood at 7.9%.
The same measure, in the same setting: the value for `O=C(O)CNC(=O)[C@@H]1CCCN1C(=O)Cc1ccccc1` [XVIII, N-phenylacetyl-L-prolylglycine] (PhAc-Pro-Gly-OH) was 9.8%; that for `CCOC(=O)[C@H](C)NC(=O)[C@@H]1CCCN1C(=O)Cc1ccccc1` [XX, N-phenylacetyl-L-prolyl-L-alanine ethyl ester] (PhAc-Pro-Ala-OEt) was 10.8%; that for `CCCCCC(=O)N1CCC[C@H]1C(=O)NCC(=O)OCC` [XXI, N-caproyl-L-prolylglycine ethyl ester] (Hexanoyl-Pro-Gly-OEt) was 20.2%.
On the same count and under the same terms, under `CCOC(=O)CNC(=O)[C@@H]1CCCN1CCCCc1ccccc1` [XXIII, N-phenylbutyl-L-prolyl-glycine ethylester] stands 12.6%.
